These results are taken from patent publication US9511052B2, “Mineralocorticoid receptor antagonists” (Merck Sharp & Dohme Corp., priority 2012, dated 2016).

The structures appear in SMILES notation. Where only a bound is given, the exact number is not on record here.

As usually defined, the IC50 is the point on the concentration scale where inhibition reaches its midpoint. For orientation: clearance means the volume of plasma or blood freed of the substance per unit of time. As usually defined, the bioavailability is dose-corrected exposure relative to a reference, in per cent.

Data set [1] addresses T1, full-length human Mineralocorticoid Receptor (MR) (Homo sapiens, UniProt P08235).
T1 construct: host or cells: PathHunter CHO-K1 MR cells
T1 sequence (P08235 1-984): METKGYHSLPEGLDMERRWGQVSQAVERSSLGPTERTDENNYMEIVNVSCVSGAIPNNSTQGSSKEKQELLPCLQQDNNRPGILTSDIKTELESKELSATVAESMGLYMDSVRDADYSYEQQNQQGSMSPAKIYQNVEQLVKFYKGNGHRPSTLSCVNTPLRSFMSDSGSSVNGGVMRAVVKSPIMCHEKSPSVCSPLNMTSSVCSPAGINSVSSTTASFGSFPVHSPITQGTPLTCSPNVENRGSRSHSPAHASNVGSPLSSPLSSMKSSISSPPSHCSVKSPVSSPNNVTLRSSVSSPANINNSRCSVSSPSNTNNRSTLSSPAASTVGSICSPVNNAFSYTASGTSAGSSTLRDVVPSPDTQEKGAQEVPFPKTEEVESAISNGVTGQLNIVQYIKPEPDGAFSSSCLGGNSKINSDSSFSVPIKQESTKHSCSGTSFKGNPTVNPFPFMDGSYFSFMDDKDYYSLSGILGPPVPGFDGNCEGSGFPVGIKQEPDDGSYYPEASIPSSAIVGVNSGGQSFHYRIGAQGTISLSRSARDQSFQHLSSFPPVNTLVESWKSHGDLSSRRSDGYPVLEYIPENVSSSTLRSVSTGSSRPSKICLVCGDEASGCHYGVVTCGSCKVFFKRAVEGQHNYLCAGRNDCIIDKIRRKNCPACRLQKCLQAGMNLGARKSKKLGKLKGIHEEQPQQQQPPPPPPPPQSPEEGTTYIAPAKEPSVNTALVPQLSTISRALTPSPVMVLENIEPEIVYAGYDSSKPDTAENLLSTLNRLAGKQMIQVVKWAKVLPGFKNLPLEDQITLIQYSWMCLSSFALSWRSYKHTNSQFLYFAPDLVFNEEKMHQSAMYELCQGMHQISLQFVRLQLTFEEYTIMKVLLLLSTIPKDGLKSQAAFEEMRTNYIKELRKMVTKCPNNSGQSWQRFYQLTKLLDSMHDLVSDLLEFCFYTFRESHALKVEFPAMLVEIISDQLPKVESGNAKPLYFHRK
The data set can be described thus: human MR NH Pro assay (PathHunter Protein:Protein interaction assay), MR antagonism. The data set is classed as cell-based. The note with it: IP = inflection point of the dose-response curve; CHO-K1 cells overexpressing human MR, aldosterone about 0.3 nM to about 1 nM, 6 hours at 37° C. In a few lines: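 PathHunter CHO-K1 MR cells (10K/well) plated overnight at 37°C, 5% CO2, then exposed 6 h to a 10-point titration starting at 36.7 μM final, in duplicate, DMSO <1%. MR–coactivator peptide interaction read by luminescence after 1 h with DiscoveRx detection reagent at room temperature.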

Another data set can be described thus: PK profile in rats. The data set is classed as in vivo, rat. Conditions: for clearance / half-life / bioavailability: rat, in vivo; for bioavailability: oral.
Data set [2] can be described thus: Liver microsome stability, human. In kind it is in vitro ADME. Conditions: for Liver Microsome Stability (t1/2): Human; for half-life: human, liver microsomes, read-out: Liver Microsome Stability (t1/2). On the technique in general: Liver microsomes are a subcellular fraction often used to study metabolism.
A short description of data set [3]: Liver microsome stability, rat. Conditions: liver microsomes, read-out: Liver Microsome Stability (t1/2). The data set is classed as in vitro ADME.
A short description of data set [4]: Liver microsome stability, dog. Conditions: liver microsomes, read-out: Liver Microsome Stability (t1/2). In kind it is in vitro ADME.
A short description of data set [5]: Liver microsome stability, rhesus monkey. In kind it is in vitro ADME. Conditions: liver microsomes, read-out: Liver Microsome Stability (t1/2).
Data set [6] is described as follows: Hepatocyte stability, human. In kind it is in vitro ADME. The note with it: for half-life: human, hepatocytes, read-out: Hepatocyte Stability (t1/2).
Data set [7] can be described thus: Hepatocyte stability, rat. Conditions: hepatocytes, read-out: Hepatocyte Stability (t1/2). In kind it is in vitro ADME.
A short description of data set [8]: Hepatocyte stability, dog. In kind it is in vitro ADME. Conditions: hepatocytes, read-out: Hepatocyte Stability (t1/2).
A short description of data set [9]: Hepatocyte stability, rhesus monkey. Conditions: hepatocytes, read-out: Hepatocyte Stability (t1/2). In kind it is in vitro ADME.
Data set [10] can be described thus: Metabolic stability in liver microsome and hepatocytes of multiple animal species (overall statement). In kind it is in vitro ADME.

`CCC(c1ccc(Br)cc1)(C(C)O)n1ncc2c(NS(C)(=O)=O)cccc21` (single isomer, unassigned) [Compound 2, N-(1-(3-(4-bromophenyl)-2-hydroxypentan-3-yl)-1H-indazol-4-yl) methanesulfonamide] yielded an IC50 in [1] of 7 nM. For the same compound, in the data set “PK profile in rats”, the “PK profile in rats (in words)” value is listed as “good PK profile”. In addition, the AUCN po in the data set “PK profile in rats” worked out at 1.0 µM·kg·h/mg. This compound registered a clearance in the data set “PK profile in rats” of 18 mL/min/kg. In addition, the half-life in “PK profile in rats” is 3.6 h; in data set [3], 0.883 h; in [4] it was 1.12 h; in [5] it was 0.383 h; in [7] it was more than 1.5 h; in data set [8], 0.75 h. In addition, the half-life in data set [9] came to 0.933 h. In “PK profile in rats”, this compound had a bioavailability of 49%. Also, the “Liver Microsome Stability (t1/2)” value in data set [2] turned out to be 0.8 h. The “Hepatocyte Stability (t1/2)” value in [6] (Human) was found to be 1.15 h. Also, the “metabolic stability in liver microsome and hepatocytes of multiple animal species (in words)” value (from here on “metabolic stability”) in data set [10] is reported as “good metabolic stability”.

`CCC(O)C(CC)(c1ccc(C(F)(F)F)cc1)n1ncc2c(NS(C)(=O)=O)cccc21` (single isomer, unassigned) [Compound 9, N-(1-(4-hydroxy-3-(4-(trifluoromethyl)phenyl)hexan-3-yl)-1H-indazol-4-yl)methanesulfonamide]: the IC50 in [1] stood at 4 nM. The Cl in “PK profile in rats” worked out at 24 mL/min/kg. Further, the “PK profile in rats (in words)” value in the data set “PK profile in rats” is “good PK profile”. In addition, the t1/2 in “PK profile in rats” was 5.3 h. In the data set “PK profile in rats”, this compound registered an AUCN po of 1.3 µM·kg·h/mg. The bioavailability in “PK profile in rats” was 76%. Besides, the “Liver Microsome Stability (t1/2)” value in [2] was 1.2 h. Moreover, the half-life in data set [3] is 1.02 h; in data set [4] it was 1.08 h; in data set [5] it was 1.02 h; in [6], more than 1.5 h; in data set [7] it was more than 1.5 h; in data set [8] it was 0.8 h. Besides, the half-life in data set [9] is more than 1.5 h. Also, the “metabolic stability” value in data set [10] was “good metabolic stability”.

As to `CCC(c1ccc(C(F)(F)F)cc1)(C(C)O)n1ncc2c(NS(C)(=O)=O)cc(F)cc21` (single isomer, unassigned) [Compound 31, N-(6-fluoro-1-(2-hydroxy-3-(4-(trifluoromethyl)phenyl)pentan-3-yl)-1H-indazol-4-yl)methanesulfonamide], the IC50 in [1] was 51 nM. The “PK profile in rats (in words)” value in the data set “PK profile in rats” was “good PK profile”. The compound also gave an AUCN po in the data set “PK profile in rats” of 4.0 µM·kg·h/mg. Moreover, the clearance in “PK profile in rats” came out at 8.4 mL/min/kg. Besides, the half-life was 5.2 h in “PK profile in rats”; 2.6 h in [2]; 3.9 h in data set [3]; 2.13 h in [4]; 1.12 h in [5]; 1.5 h in [6]. In addition, the half-life was more than 1.5 h in data set [7], 1.22 h in data set [8] and more than 1.5 h in [9]. Besides, the bioavailability in “PK profile in rats” came out at 92%. In addition, the “metabolic stability” value in data set [10] is “excellent metabolic stability”.

With `CS(=O)(=O)Nc1cccc2c1cnn2C(CC(F)F)(C(N)=O)c1ccc(C(F)(F)F)cc1` (single isomer, unassigned) [Compound 46, 4,4-difluoro-2-(4-(methylsulfonamido)-1H-indazol-1-yl)-2-(4-(trifluoromethyl)phenyl)butanamide], 76 nM corresponded to half-maximal inhibition in data set [1] (IC50). The “PK profile in rats (in words)” value in the data set “PK profile in rats” is recorded as “good PK profile”. In the data set “PK profile in rats”, this compound displayed an AUCN po of 1.9 µM·kg·h/mg. In addition, the clearance in the data set “PK profile in rats” was determined as 6.2 mL/min/kg. Moreover, the half-life in “PK profile in rats” is 4.2 h; in [2], 2.3 h; in data set [3], 1.62 h; in [4], 2.25 h; in [5], 1.53 h; in data set [6], more than 1.5 h. Further, the half-life in [7], in data set [8] and in data set [9] was more than 1.5 h each time. Further, the bioavailability in “PK profile in rats” turned out to be 31%. Also, the “metabolic stability” value in data set [10] is “good metabolic stability”.

Compound `CCC(c1ccc(C(F)(F)F)cc1)(C(O)C(F)F)n1ncc2c(NS(C)(=O)=O)cccc21` (single isomer, unassigned) [Compound 47, N-(1-(1,1-difluoro-2-hydroxy-3-(4-(trifluoromethyl)phenyl)pentan-3-yl)-1H-indazol-4-yl)methanesulfonamide] returned an IC50 in [1] of 11 nM. The compound further yielded a Cl in the data set “PK profile in rats” of 3.8 mL/min/kg. For the same compound, the “PK profile in rats (in words)” value in “PK profile in rats” is “good PK profile”. Further, the t1/2 in the data set “PK profile in rats” is 9.9 h. The AUCN po in the data set “PK profile in rats” is 8.9 µM·kg·h/mg. Also, in the data set “PK profile in rats”, the bioavailability is 77%. The “Liver Microsome Stability (t1/2)” value in [2] was found to be 1.03 h. The half-life was 2.57 h in data set [3]; 2.7 h in data set [4]; 0.7 h in data set [5]; more than 1.5 h in data set [6]; more than 1.5 h in data set [7]; more than 1.5 h in data set [8]. In addition, in data set [9], the half-life was more than 1.5 h. Further, the “metabolic stability” value in data set [10] is “good metabolic stability”.
